Source: patent US9962329B2, “Cosmetic use of the combination of a carob germ extract and caffeine as a slimming active agent” (ISP INVESTMENTS INC., priority 2012, dated 2018)

Experiments:
aquaglyceroporin 7 = assay: Immuno-detection of aquaglyceroporin 7 expression in differentiated 3T3-L1 adipocyte cells; format: cell-based; details: differentiated 3T3-L1 cells; with respect to untreated control; carob extract 1% daily for 12 days, caffeine 2 mM for 5 hours
Procedure: 3T3-L1 adipocyte cells are cultivated in a DMEM medium with 4.5 g/l glucose, 2 mM glutamine and 10% fetal bovine serum. Two days after the cell confluence phase, the differentiation of 3T3-L1 cells into adipocytes is induced by adding a solution of 0.5 mM of IBMX, 1 μM of dexamethasone and 10 μg/ml of insulin (Sigma, St. Louis, Mo., USA) in the culture medium for 3 days. Then, only the insulin is kept for 3 to 4 days of additional culture. The cells are then kept in culture, in a standard medium, for another 3 days. The treatment is performed from the start of the differentiation induction phase by a daily application, for 12 days, of 1×PBS (Lonza, Rockland, Me., USA) for the untreated control, carob germ extract with a dry weight of 2.5 g/kg as obtained in example 1, diluted to 1% in PBS, or carob germ extract as obtained in example 1, diluted to 1% in PBS and to which 2 mM of caffeine is added for the last 5 hours of the treatment. A 5-hour treatment with 2 mM of caffeine was also performed. […] The cell membranes are permeabilized with acetone for 4 minutes at -20° C. The non-specific sites are saturated with 3% bovine serum albumin (Sigma-Aldrich, […], Germany) for 15 minutes. […] Three images for each condition are analyzed using the Image-Pro Analyzer 6.3 software. […]

[1] = tested on: differentiated 3T3-L1 adipocyte cells; assay: Nile Red detection of lipid droplets (intensity, size, number) in adipocytes; format: cell-based
Procedure: The culture, the differentiation of 3T3-L1 cells, then the treatment with the compounds to be tested are performed as in example 2. The lipid detection is performed using Nile Red fluorescent stain, a phenoxazone that intensely labels the intracellular lipids. The color of the fluorescence observed is directly dependent upon the hydrophobicity of the surrounding medium. This specific property of Nile Red makes it possible to differentiate neutral lipids, labeled in gold-yellow, from phospholipids, labeled in red. […] The cells are examined with the fluorescence microscope. The quantification and statistical analysis are performed as in example 2.

[2] = with respect to untreated cells

Cn1c(=O)c2c(ncn2C)n(C)c1=O [Caffeine, caffeine]
increase in fluorescence (aquaglyceroporin 7 immunolabeling) (aquaglyceroporin 7): 12.6% | Average droplet size ([1]; differentiated 3T3-L1 cells): 109.55 μm^2 | Number of droplets ([1]; differentiated 3T3-L1 cells): 219 | Intensity of the Nile Red labeling, Ratio ([1]; differentiated 3T3-L1 cells, carob extract 1% 12 days, caffeine 2 mM 5 hours): 180.47 Pixels/μm^2 | intensity of the Nile Red labeling, size and number of droplets (in words) ([1]; with respect to the untreated cells): reduced | Droplet size, % reduction [1, 2]: −17.40% | Intensity of the Nile Red labeling, % reduction [1, 2]: −37.36% | Number of droplets, % reduction [1, 2]: −18%
